Consider five molecules from patent US10857153B2, “Pyrimidine compounds containing acidic groups” (Apros Therapeutics, Inc., priority 2018, dated 2020).

For one data set, the target named is T1, human TLR7 (Homo sapiens, UniProt Q9NYK1).
T1 construct: host or cells: HEK293 (HEK-Blue™ hTLR7)
T1 sequence (Q9NYK1 27-1049): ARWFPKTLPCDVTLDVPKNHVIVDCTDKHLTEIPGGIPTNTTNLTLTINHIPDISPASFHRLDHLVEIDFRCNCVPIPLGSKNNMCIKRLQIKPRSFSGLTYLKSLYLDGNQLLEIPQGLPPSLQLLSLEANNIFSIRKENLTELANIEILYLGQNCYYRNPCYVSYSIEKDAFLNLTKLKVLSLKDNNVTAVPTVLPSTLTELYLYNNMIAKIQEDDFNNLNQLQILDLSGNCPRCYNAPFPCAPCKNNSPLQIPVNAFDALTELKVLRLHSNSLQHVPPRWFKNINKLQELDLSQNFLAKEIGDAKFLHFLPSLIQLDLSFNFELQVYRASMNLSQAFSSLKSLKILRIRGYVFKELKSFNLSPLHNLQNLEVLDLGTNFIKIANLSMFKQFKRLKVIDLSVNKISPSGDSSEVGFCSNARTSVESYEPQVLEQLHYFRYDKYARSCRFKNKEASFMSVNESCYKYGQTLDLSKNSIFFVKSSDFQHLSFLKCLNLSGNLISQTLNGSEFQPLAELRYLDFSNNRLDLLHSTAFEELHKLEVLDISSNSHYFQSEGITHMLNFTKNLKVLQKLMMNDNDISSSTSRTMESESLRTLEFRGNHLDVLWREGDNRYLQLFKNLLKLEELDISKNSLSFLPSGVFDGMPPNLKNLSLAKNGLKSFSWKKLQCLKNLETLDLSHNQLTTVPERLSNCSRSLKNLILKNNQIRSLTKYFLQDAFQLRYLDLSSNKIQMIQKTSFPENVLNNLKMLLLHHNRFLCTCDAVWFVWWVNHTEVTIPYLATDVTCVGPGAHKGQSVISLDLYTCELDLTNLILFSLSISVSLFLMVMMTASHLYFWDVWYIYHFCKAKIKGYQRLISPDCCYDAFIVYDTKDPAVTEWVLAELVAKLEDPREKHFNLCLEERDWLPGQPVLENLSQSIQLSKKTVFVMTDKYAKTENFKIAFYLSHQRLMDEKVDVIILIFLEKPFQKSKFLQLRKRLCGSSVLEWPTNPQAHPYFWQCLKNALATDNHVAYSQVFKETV
Nature of the data set: HEK-TLR7 assay (HEK-Blue hTLR7 cells, SEAP reporter). It counts as cell-based. Conditions: 16 h. The text has this:
HEK-Blue™ TLR7 cells were purchased from Invivogen (San Diego, Calif.). The following description was taken from the product information sheet.
“HEK-Blue™ hTLR7 cells are designed for studying the stimulation of human TLR7 (hTLR7) by monitoring the activation of NF-kB. HEK-Blue™ hTLR7 cells were obtained by co-transfection of the hTLR7 gene and an optimized secreted embryonic alkaline phosphatase (SEAP) reporter gene into HEK293 cells. The SEAP reporter gene is placed under the control of the IFN-b minimal promoter fused to five NF-kB and AP-1-binding sites. Stimulation with a TLR7 ligand activates NF-kB and AP-1 which induce the production of SEAP, which is detected by the HEK-Blue™ Detection cell culture medium.”
A typical assay protocol involved the following steps: • 1. Cells were cultured according to the product information sheet. • 2. 10 mM compound stock in DMSO were first diluted to 3 mM and then 3-fold serially diluted using DMSO to afford a 10-pt dilution. • 3. 3 μl of the diluted DMSO were added to 57 μl HEK-Blue™ Detection media for a further 20-fold dilution. • 4. 10 μl of the diluted compound in assay media were added into 40 μl cell culture (in HEK-Blue™ Detection media) in 384-well plate. Final cell concentration=8,000 cells per well. • 5. The plates were incubated at 37° C. in 5% CO2 for 16 h. SEAP was determined using a spectrophotometer at 620-655 nm.

A short description of data set [1]: Formulation preparation and solubility examination. It is filed as physicochemical. The following applies: 1 mg/mL in 0.5% carboxy methycellulose in water, pH 6-7. As for the experimental part: The resulting formulations were vortexed and stored at 4° C. before dosing.
The test system of another data set is TLR7. Description: Pharmacodynamic experiment: serum IP-10 after intranasal dosing. It is filed as in vivo. The following applies: BALB/c mice, 60 micrograms intranasally, 5 hours. As for the experimental part: IP-10 is a biomarker of TLR7 target activation. Higher production levels of IP-10 is an indication of higher target engagement in vivo. In this study, 3 BALB/c mice per group were dosed intranasally with 60 micrograms of Compound 1B, 2B, 3B, Compound 50 or AZD8848. The test compounds were formulated as a 1 mg/mL solution in 0.5% carboxy methycellulose. Animals were sacrificed after 5 hours. Serum IP-10 concentrations were measured using a commercial ELISA kit purchased from Meso Scale Discovery.

Data set [2] relates to CT26 cells stably expressing luciferase. Nature of the data set: CT26 metastatic lung cancer model. Conditions: for median survival time: intranasal, in combination with anti-PD-L1, twice a week, 8 doses; for mean bioluminescence (tumor burden) versus anti-PD-L1 or anti-PD-L1 with Compound 50 or AZD8848: in combination with anti-PD-L1, for more than 20 days after injection of tumor cells.
Method: To establish a lung cancer model, 5e5 CT26 cells stably expressing luciferase (Imanis Life Sciences) were injected intravenously into female Balb/c mice on Day 0. On Day 4 post challenge, mice were anesthetized and subjected to whole body bioluminescent imaging (IVIS; Perkin Elmer) to determine tumor burden and in vivo location. Mice with detectable lung tumors were enrolled into the study and randomized such that the average bioluminescence and variance is equivalent amongst all of the study groups. Animals were dosed twice a week for a total of 8 doses with the indicated treatments, and imaged weekly to determine total tumor burden over the course of the treatment.
The known TLR7 compound AZD8848 was used as a comparator and administered in combination with anti-PD-L1 to the mice. […] Each treatment group contained 10 mice.

On human TLR7, `CCCCOc1nc(N)c2[nH]c(=O)n(CCCN(CCCN3CCOCC3)Cc3cccc(CC(=O)OC)c3)c2n1` [AZD8848, reference compound] showed a 50% effective concentration (EC50) of 37 nM. Further, the “appearance of formulation (solubility)” value in data set [1] is “turbid suspension”. Further, the “mean serum IP-10 concentration” value in the data set on TLR7 is 96 pg/mL. For the same molecule, the median survival time in data set [2] was determined as 23 days.

Consider `CCCC[C@@H](CCS(C)(=O)=O)Nc1nc(N)nc(CCC(=O)O)c1Cc1cc(Cc2nn[nH]n2)ccc1OC` [Compound 1B, (S)-3-(5-(5-((2H-tetrazol-5-yl)methyl)-2-methoxybenzyl)-2-amino-6-((1-(methyl-sulfonyl)heptan-3-yl)amino)pyrimidin-4-yl)propanoic acid], for which it took 230 nM to reach a half-maximal effect on human TLR7 (EC50). For the same molecule, in the data set on TLR7, the “mean serum IP-10 concentration” value was “about 700 pg/mL”. Besides, in data set [2], the “mean bioluminescence (tumor burden) versus anti-PD-L1 or anti-PD-L1 with Compound 50 or AZD8848” value was “lower” and the median survival time turned out to be 36 days.

For the molecule `CCCC[C@@H](CCO)Nc1nc(N)nc(CCC(=O)O)c1Cc1cc(CC(=O)O)ccc1OC` [Compound 2B, (S)-3-(2-amino-5-(5-(carboxymethyl)-2-methoxybenzyl) -6-((1-hydroxyheptan-3-yl)amino)pyrimidin-4-yl)propanoic acid], on human TLR7, a half-maximal response (EC50) required 270 nM. For the same molecule, the “mean serum IP-10 concentration” value with TLR7 is roughly 150 pg/mL. In data set [2], the “mean bioluminescence (tumor burden) versus anti-PD-L1 or anti-PD-L1 with Compound 50 or AZD8848” value was “lower” and the median survival time is 32 days.

`CCCC[C@@H](CCO)Nc1nc(N)nc(CCC(=O)O)c1Cc1cc(Cc2nn[nH]n2)ccc1OC` [Compound 3B, (S)-3-(5-(5-((2H-tetrazol-5-yl)methyl)-2-methoxybenzyl)-2-amino-6-((1-hydroxyheptan-3-yl)amino)pyrimidin-4-yl)propanoic acid] yielded a 50% effective concentration (EC50) at human TLR7 of 270 nM. For the same molecule, the “mean serum IP-10 concentration” value in the data set on TLR7 was roughly 1300 pg/mL. Also, in data set [2], the “mean bioluminescence (tumor burden) versus anti-PD-L1 or anti-PD-L1 with Compound 50 or AZD8848” value was “lower” and the median survival time was 36 days.

As for `CCCC[C@@H](CCS(C)(=O)=O)Nc1nc(N)nc(CCC(=O)O)c1Cc1cc(CC(=O)O)ccc1OC` [Compound 50, reference compound], at human TLR7, a half-maximal effect (EC50) was put at 260 nM. Further, the “appearance of formulation (solubility)” value in data set [1] is recorded as “clear”. Moreover, the “mean serum IP-10 concentration” value with TLR7 was determined as 125 pg/mL. In addition, the median survival time in data set [2] is reported as 29 days.
